Source: patent US7294639B2, “Biaromatic ligand activators of PPARγ receptors” (Galderma Research & Development, priority 2001, dated 2007)

Experiments:
[1] = molecular target: T1, chimeric Gal-PPARγ receptor (LBD) (Homo sapiens, UniProt P37231); experiment: Transactivation test, PPARγ agonist activity (luciferase); format: cell-based; conditions: concentration giving 50% activation relative to the reference agonist
T1 construct: chimeric Gal-PPARγ receptor (LBD); expressed in transfected cells; host or cells: HeLa cells, stably transfected
T1 sequence (P37231 238-503 limits assumed): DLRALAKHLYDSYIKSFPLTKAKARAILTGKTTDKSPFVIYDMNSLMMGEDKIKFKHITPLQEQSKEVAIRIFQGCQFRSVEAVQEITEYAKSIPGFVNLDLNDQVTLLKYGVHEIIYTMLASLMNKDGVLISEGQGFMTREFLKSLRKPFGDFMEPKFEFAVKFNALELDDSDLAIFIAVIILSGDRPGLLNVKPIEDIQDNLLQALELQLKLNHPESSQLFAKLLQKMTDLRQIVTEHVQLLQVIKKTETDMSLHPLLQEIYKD
Description: The agonist activity towards the PPARγ receptors of the compounds according to the invention may be evaluated by transactivation tests.
The capacity of the molecules to activate and/or inhibit the PPARγ receptors is evaluated from Hela cells stably transfected with the chimeric Gal-PPARγ receptor (LBD).
96-well plates are inoculated at the rate of 10000 cells/100 μl/well in DMEM 10% SDL medium and then placed for 24 hours at 37° C., 7% CO2.
To determine the PPARγ agonist activity, the cells are then treated by addition of 5 μl/well of the molecules to be tested at the final concentration of 1 μM. Cells are also treated in parallel with a reference agonist, (−)-3-{4-[2-(benzooxazol-2-ylmethylamino)ethoxy]phenyl}-2-ethoxypropionic acid, 1 μM.
After another incubation of 24 hours at 37° C., 7% CO2, a luciferase assay is carried out with the aid of the “Steady-Glo Luciferase Assay System” kit from Promega. The luminescence is counted on a Microbeta Trilux microplate reader (Wallac).
The agonist activity of the test product will be expressed as a percentage activation relative to the control agonist, the reference agonist at 1 μM.
The AC50, expressed in nM, is determined as the concentration which makes it possible to obtain 50% activation of the basal signal relative to the reference agonist.

[2] = molecular target: T2, human PPARγ receptor (Homo sapiens, UniProt P37231); experiment: Binding test by competition with tritiated reference agonist (hydroxyapatite gel); conditions: hPPARγ/RXRα heterodimers from SF9 insect cells
T2 construct: made in house; host or cells: SF9 insect cells, recombinant baculovirus
Description: The affinity of the compounds of the invention for the human PPARγ receptor was determined in a test of binding, by competition for the attachment of a reference agonist, the following tritiated compound 5-{4-[2-(methylpyridin-2-ylamino)ethoxy]benzyl}thiazolidine-2,4-dione.
The receptors are obtained by infecting SF9 insect cells with a recombinant bacculovirus. They exist in the form of hPPARγ/RXRα heterodimers. The presence of RXRα increases the solubility and the stability of the hPPARγ receptor and, consequently, its biological activity, without as a result interfering in the determination of the binding constants.
The technique of adsorption on hydroxyapatite gel was used to separate the ligand bound to the receptor from the free ligand. The results are expressed as Kd value (nM) which represents the dissociation constant at equilibrium obtained for each compound.

T2 sequence (P19793 whole entry): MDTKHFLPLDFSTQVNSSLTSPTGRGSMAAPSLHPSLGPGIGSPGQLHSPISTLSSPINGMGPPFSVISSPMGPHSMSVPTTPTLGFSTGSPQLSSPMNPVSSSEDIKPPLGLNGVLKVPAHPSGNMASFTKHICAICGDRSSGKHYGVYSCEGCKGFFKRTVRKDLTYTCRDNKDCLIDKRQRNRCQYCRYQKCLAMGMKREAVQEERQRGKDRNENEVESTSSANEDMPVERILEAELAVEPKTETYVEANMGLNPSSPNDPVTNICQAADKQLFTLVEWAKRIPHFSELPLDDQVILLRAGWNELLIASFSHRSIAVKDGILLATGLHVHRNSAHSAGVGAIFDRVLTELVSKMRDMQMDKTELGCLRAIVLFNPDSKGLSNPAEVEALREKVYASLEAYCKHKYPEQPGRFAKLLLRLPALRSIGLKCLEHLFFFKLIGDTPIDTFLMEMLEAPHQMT
T2 sequence (P37231 whole entry): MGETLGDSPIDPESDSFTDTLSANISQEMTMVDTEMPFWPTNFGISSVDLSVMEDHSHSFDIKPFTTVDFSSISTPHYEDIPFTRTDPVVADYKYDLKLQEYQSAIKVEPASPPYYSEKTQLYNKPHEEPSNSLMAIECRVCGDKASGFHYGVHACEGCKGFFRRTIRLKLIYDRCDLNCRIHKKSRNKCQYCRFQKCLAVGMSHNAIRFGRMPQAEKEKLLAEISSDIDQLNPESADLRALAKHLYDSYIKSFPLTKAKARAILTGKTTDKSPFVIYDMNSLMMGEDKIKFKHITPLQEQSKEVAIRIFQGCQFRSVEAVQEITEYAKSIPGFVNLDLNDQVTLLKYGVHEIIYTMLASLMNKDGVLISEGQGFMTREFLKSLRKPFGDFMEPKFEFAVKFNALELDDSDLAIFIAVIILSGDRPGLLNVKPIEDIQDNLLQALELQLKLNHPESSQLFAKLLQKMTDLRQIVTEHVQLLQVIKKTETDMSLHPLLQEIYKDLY

Structure (SMILES) | AC50 [1] [nM] | Kd [2] [nM]
COC(=O)CCCCCCCCC(=O)N(C)Cc1cccc(-c2ccc(CC3SC(=O)NC3=O)cc2)c1 (centres unmarked) [Example 2, methyl 9-{[4′-(2,4-dioxothiazolidin-5-ylmethyl)biphenyl-3-ylmethyl]methylcarbamoyl}nonanoate] | 55.5 | 
COC(=O)c1ccc(C(=O)N(C)Cc2cccc(-c3ccc(CC4SC(=O)NC4=O)cc3)c2)cc1 (centres unmarked) [Example 3, methyl N-[4′-(2,4-dioxothiazolidin-5-ylmethyl)biphenyl-3-ylmethyl]-N-methylterephthalamate] | 13.1 | 375
CN(Cc1cccc(-c2ccc(CC3SC(=O)NC3=O)cc2)c1)C(=O)CCC1CCCC1 (centres unmarked) [Example 4, 3-cyclopentyl-N-[4′-(2,4-dioxothiazolidin-5-ylmethyl)biphenyl-3-ylmethyl]-N-methylpropionamide] | 24.2 | 250
CN(Cc1cccc(-c2ccc(CC3SC(=O)NC3=O)cc2)c1)C(=O)c1cccc2ccccc12 (centres unmarked) [Example 5, N-[4′-(2,4-dioxothiazolidin-5-ylmethyl)biphenyl-3-ylmethyl]-N-methylnaphthalene-1-carboxamide] | 23.3 | 500
CN(Cc1cccc(-c2ccc(CC3SC(=O)NC3=O)cc2)c1)C(=O)c1ccc2ccccc2c1 (centres unmarked) [Example 6, N-[4′-(2,4-dioxothiazolidin-5-ylmethyl)biphenyl-3-ylmethyl]-N-methylnaphthalene-2-carboxamide] | 4 | 60
CN(Cc1cccc(-c2ccc(CC3SC(=O)NC3=O)cc2)c1)C(=O)COc1ccccc1 (centres unmarked) [Example 7, N-[4′-(2,4-dioxothiazolidin-5-ylmethyl)biphenyl-3-ylmethyl]-N-methyl-2-phenoxyacetamide] | 63.8 | 
CN(Cc1cccc(-c2ccc(CC3SC(=O)NC3=O)cc2)c1)C(=O)c1cccn1C (centres unmarked) [Example 8, N-[4′-(2,4-dioxothiazolidin-5-ylmethyl)biphenyl-3-ylmethyl]-N-methyl-1-methyl-1H-pyrrole-2-carboxamide] | 307 | 
CN(Cc1cccc(-c2ccc(CC3SC(=O)NC3=O)cc2)c1)C(=O)C12CC3CC(CC(C3)C1)C2 (centres unmarked) [Example 9, N-[4′-(2,4dioxothiazolidin-5-ylmethyl)biphenyl-3-ylmethyl]-N-methyladamantane-1-carboxamide] | 182 | 
CN(Cc1cccc(-c2ccc(CC3SC(=O)NC3=O)cc2)c1)C(=O)c1ccc(-c2ccccc2)cc1 (centres unmarked) [Example 10, N-[4′-(2,4-dioxothiazolidin-5-ylmethyl)biphenyl-3-ylmethyl]-N-methylbiphenyl-4-carboxamide] | 3.3 | 60
CN(Cc1cccc(-c2ccc(CC3SC(=O)NC3=O)cc2)c1)C(=O)c1cc2ccccc2s1 (centres unmarked) [Example 11, N-[4′-(2,4-dioxothiazolidin-5-ylmethyl)biphenyl-3-ylmethyl]-N-methylbenzo[b]thio-phene-2-carboxamide] | 15.1 | 375
CN(Cc1cccc(-c2ccc(CC3SC(=O)NC3=O)cc2)c1)C(=O)CCCCC(=O)c1ccccc1 (centres unmarked) [Example 12, N-[4′-(2,4-dioxothiazolidin-5-ylmethyl)biphenyl-3-ylmethyl]-N-methyl-6-oxo-6-phenylhexanamide] | 3.2 | 60
CN(Cc1cccc(-c2ccc(CC3SC(=O)NC3=O)cc2)c1)C(=O)c1ccc(N(C)C)c2ccccc12 (centres unmarked) [Example 13, 4dimethylamino-N-[4′-(2,4-dioxothiazolidin-5-ylmethyl)biphenyl-3-ylmethyl]-N-methylnaphthalene-1-carboxamide] | 36.7 | 500
CN(Cc1cccc(-c2ccc(CC3SC(=O)NC3=O)cc2)c1)C(=O)c1ccc(S(C)(=O)=O)cc1 (centres unmarked) [Example 14, N-[4′-(2,4-dioxothiazolidin-5-ylmethyl)biphenyl-3-ylmethyl]-4-methanesulphonyl-N-methylbenzamide] | 143 | 
CN(Cc1cccc(-c2ccc(CC3SC(=O)NC3=O)cc2)c1)C(=O)c1ccc(C(=O)c2ccccc2)cc1 (centres unmarked) [Example 15, N-[4′-(2,4-dioxothiazolidin-5-ylmethyl)biphenyl-3-ylmethyl]-N-methyl-4-(1-phenylmethanoyl)benzamide] | 5 | 60
COCCOCOc1ccc2cc(C(=O)N(C)Cc3cccc(-c4ccc(CC5SC(=O)NC5=O)cc4)c3)ccc2c1 (centres unmarked) [Example 16, 6-(2-methoxyethoxymethoxy)-N-[4′-(2,4-dioxothiazolidin-5-ylmethyl)biphenyl-3-ylmethyl]-N-methylnapthalene-2-carboxamide] | 0.55 | 4
CN(Cc1cccc(-c2ccc(CC3SC(=O)NC3=O)cc2)c1)C(=O)c1ccc2cc(O)ccc2c1 (centres unmarked) [Example 17, 6-hydroxy-N-[4′-(2,4-dioxothiazolidin-5-ylmethyl)biphenyl-3-ylmethyl]-N-methylnaphthalene-2-carboxamide] | 3.8 | 15
CSc1ccc(C(=O)N(C)Cc2cccc(-c3ccc(CC4SC(=O)NC4=O)cc3)c2)cc1 (centres unmarked) [Example 18, N-[4′-(2,4-dioxothiazolidine-5-ylmethyl)biphenyl-3-ylmethyl]-N-methyl-4-methylsulphanylbenzamide] | 42.5 | 
CCO[C@@H](Cc1ccc(-c2cccc(CN(C)C(=O)c3ccc(-c4ccccc4)cc3)c2)cc1)C(=O)O [Example 19, (S)-3-(3′-{[(1-biphenyl-4-ylmethanoyl)methylamino]methyl}biphenyl-4-yl)-2-ethoxypropionic acid] | 2.9 | 8
CCO[C@@H](Cc1ccc(-c2cccc(CN(C)C(=O)CCCCC(=O)c3ccccc3)c2)cc1)C(=O)O [Example 20, (S)-2-ethoxy-3-(3′-{[methyl(6-oxo-6-phenylhexanoyl)amino]methyl}biphenyl-4-yl)propionic acid] | 7.7 | 9.5
CN(C(=O)Nc1ccc2ccccc2c1)c1cccc(-c2ccc(CC3SC(=O)NC3=O)cc2)c1 (centres unmarked) [Example 21, 1-[4′-(2,4-dioxothiazolidin-5-ylmethyl)biphenyl-3-yl]-1-methyl-3-naphthalen-2-ylurea] | 22 | 
CN(C)c1ccc(NC(=O)N(C)c2cccc(-c3ccc(CC4SC(=O)NC4=O)cc3)c2)cc1 (centres unmarked) [Example 22, 3-(4-dimethylaminophenyl)-1-[4′-(2,4-dioxothiazolidin-5-ylmethyl)biphenyl-3-yl]-1-methylurea] | 4.2 | 
CCO[C@@H](Cc1ccc(-c2cccc(CN(C)C(=O)c3ccc4cc(OCOCCOC)ccc4c3)c2)cc1)C(=O)O [Example 23, (S)-2-ethoxy-3-{3′-[({1-[6-(2-methoxyethoxymethoxy)naphthalen-2-yl]methanoyl}methylamino)methyl]biphenyl-4-yl}propionic acid] | 1 | 
